Data on 21 compounds can be found in patent publication US7053189B2 (Oregon Health & Sciences University, priority 1990, dated 2006).

pKi: −log10 of the molar value. Like-named read-outs stand apart in the source and are kept apart here.

In test [1] the target is T1, human D4 dopamine receptor (Homo sapiens, UniProt P21917, DEL271-302/N396T/P18R).
T1 sequence (P21917 with tags, fused parts or gaps P18R/DEL271-302/N396T): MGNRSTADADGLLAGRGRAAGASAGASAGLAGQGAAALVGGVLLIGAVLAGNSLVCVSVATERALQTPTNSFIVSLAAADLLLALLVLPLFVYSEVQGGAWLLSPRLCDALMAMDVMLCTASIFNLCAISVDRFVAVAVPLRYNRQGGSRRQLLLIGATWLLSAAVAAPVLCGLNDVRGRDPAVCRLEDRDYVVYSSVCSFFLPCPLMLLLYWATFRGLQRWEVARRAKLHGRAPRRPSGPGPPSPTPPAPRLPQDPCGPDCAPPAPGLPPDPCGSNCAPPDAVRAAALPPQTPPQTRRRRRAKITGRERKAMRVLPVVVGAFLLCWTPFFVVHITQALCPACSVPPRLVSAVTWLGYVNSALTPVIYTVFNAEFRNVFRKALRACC

Test [2] addresses D2 in pig anterior pituitary homogenates (Sus scrofa, UniProt A0ACM8QMZ9). Type of test: binding. The note with it: for pKi: read-out: D2Ki.
The target in a further test is T2, human D2 (long) (Homo sapiens, UniProt P14416).
T2 construct: expressed in transfected cells; host or cells: GH(4)ZR(7)
T2 sequence (P14416 whole entry): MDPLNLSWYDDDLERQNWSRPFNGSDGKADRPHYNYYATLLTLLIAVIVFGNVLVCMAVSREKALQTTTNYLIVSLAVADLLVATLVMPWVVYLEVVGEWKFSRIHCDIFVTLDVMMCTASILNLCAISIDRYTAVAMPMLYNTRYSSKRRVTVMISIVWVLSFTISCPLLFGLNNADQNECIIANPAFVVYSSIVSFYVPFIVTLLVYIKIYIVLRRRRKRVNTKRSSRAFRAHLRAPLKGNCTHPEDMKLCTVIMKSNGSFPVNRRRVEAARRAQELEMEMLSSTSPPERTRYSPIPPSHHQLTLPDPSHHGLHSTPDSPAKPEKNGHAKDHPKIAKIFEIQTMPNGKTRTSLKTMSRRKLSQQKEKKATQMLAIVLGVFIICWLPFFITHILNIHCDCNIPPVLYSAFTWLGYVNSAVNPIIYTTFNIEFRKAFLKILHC
Nature of the test: D2 dissociation constants, human D2 receptor expressed in GH(4)ZR(7) cells. The format is binding.

In test [3] the target is T1, human D4 dopamine receptor. Briefly: [3H]spiperone binding to membranes of COS-7 cells transfected with human D4 receptor construct.
Test [4] has as its target T1, human D4 dopamine receptor. Briefly: biochemical.
Setting [5] is: T = Ki in pig anterior pituitary homogenates, no unit in table.

Chain of D2 in pig anterior pituitary homogenates (A0ACM8QMZ9 1-443): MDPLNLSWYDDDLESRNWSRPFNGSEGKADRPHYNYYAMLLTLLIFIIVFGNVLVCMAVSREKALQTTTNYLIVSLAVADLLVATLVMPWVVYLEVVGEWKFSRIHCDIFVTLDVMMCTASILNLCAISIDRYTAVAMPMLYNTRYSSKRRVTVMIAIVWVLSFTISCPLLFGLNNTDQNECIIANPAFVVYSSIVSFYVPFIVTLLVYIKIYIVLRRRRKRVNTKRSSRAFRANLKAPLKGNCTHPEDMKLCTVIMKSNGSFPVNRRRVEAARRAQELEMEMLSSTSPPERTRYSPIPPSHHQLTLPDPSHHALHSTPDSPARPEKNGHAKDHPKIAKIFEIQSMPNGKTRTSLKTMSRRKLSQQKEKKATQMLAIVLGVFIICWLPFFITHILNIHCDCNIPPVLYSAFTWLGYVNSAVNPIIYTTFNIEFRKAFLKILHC

Turning to `NC1CCc2cc(O)c(O)cc2C1` (racemic) [ADTN-(±)], the pKi in test [1] was 7.47; in test [2] (setting [5]) it was 8.77.
Turning to `NC[C@H](O)c1ccc(O)c(O)c1` [(−) Noradrenaline], in test [2], the pKi is about 5.22.
As to `CC(C)C[C@H]1C(=O)N2CCC[C@H]2[C@]2(O)O[C@](NC(=O)[C@@H]3C=C4c5cccc6[nH]c(Br)c(c56)C[C@H]4N(C)C3)(C(C)C)C(=O)N12` [Bromocriptine], the pKi is 7.85 at human D2 (long) and 6.89 in test [3].
Consider `CC(C)C[C@H]1C(=O)N2CCC[C@H]2[C@]2(O)O[C@](NC(=O)[C@@H]3C=C4c5cccc6[nH]cc(c56)C[C@H]4N(C)C3)(C(C)C)C(=O)N12` [Ergocriptine-S], for which the pKi in test [2] (setting [5]) is 9.40; in test [3] (read-out: D4Ki), 7.26.
For the compound `CCc1cc(Cl)c(OC)c(C(=O)NC[C@@H]2CCCN2CC)c1O` [Eticlopnde], the “[formula] (ratio D2Ki to D4Ki)” value in test [2] is given as 0.17. The compound also gave a pKi in test [3] of 9.28.
`OCCN1CCN(CCCN2c3ccccc3Sc3ccc(C(F)(F)F)cc32)CC1` [Fluphenazine] showed a pKi in test [4] of 7.38.
In turn, `O=C(c1ccc(F)cc1)C1CCN(CCn2c(=O)[nH]c3ccccc3c2=O)CC1` [Ketanserin] showed a pKi in test [4] of 6.83.
`CCCN(CCc1cccs1)[C@H]1CCc2c(O)cccc2C1` [N-0437]: the pKi in test [1] is 7.03; in test [2] (setting [5]), 9.15.
Regarding `CCCN1CCc2cccc3c2[C@H]1Cc1ccc(O)c(O)c1-3` [NPA], the pKi was 8.26 in test [1] and 9.40 in test [2] (setting [5]).
In the case of `CN1CCN(C2Cc3ccccc3Sc3ccc(Cl)cc32)CC1` (centres unmarked) [Octoclothepin-R], the pKi in test [2] is 7.87.
As for `CCCN1CCO[C@@H]2c3cc(O)ccc3CC[C@H]21` [PHNO-(+)], the values for the pKi in test [1] and in test [2] (setting [5]) were 7.38 and 8.92, respectively.
In test [3], `O=c1[nH]c2ccccc2n1C1CCN(CCCC(c2ccc(F)cc2)c2ccc(F)cc2)CC1` [Pimozide] gave a pKi of 7.60.
Turning to `CCCN1CCC[C@@H]2Cc3n[nH]cc3C[C@H]21` [Quinpirole(−)], the pKi in test [2] (setting [5]) is 8.32.
Compound `CCN1CCC[C@H]1CNC(=O)c1c(O)c(Cl)cc(Cl)c1OC` [Raclopride] showed a pKi in test [4] of 6.60.
As for `CN1CCc2cc(Cl)c(O)cc2[C@@H](c2ccccc2)C1` [SCH23390], in test [4], the pKi was 5.71.
Consider `Oc1cc2c(cc1O)C(c1ccccc1)CNCC2` (centres unmarked) [SKF-38393], for which, in test [3], the pKi is 5.80.
Take `NCCc1c[nH]c2ccc(O)cc12` [Serotonin]: in test [4], the pKi was about 5.10.
Same read-out and setting: with `CN1CCN(CCCN2c3ccccc3Sc3ccc(S(=O)(=O)N(C)C)cc32)CC1` [Thioproperazine] the figure was 7.28; with `CSc1ccc2c(c1)N(CCC1CCCCN1C)c1ccccc1S2` (centres unmarked) [Thioridazine], 7.92.
`CNc1cc(OC)c(C(=O)NC2CCN(Cc3ccccc3)C2C)cc1Cl` (centres unmarked) [YM-09151-2]: in test [2] (setting [5]), the pKi was 10.22.
Take Fencidopam: the figures for the pKi in test [1] and in test [2] (setting [5]) were 6.38 and 8.55, respectively.
